Legend:
Settings in all cases: 72 h
[1] = test system: U2OS; assay: drug sensitivity score (DSS) for viability; higher = more toxic; extreme values may be limits of the assay
[2] = test system: Caco-2; assay: as above
[3] = test system: Calu-3; assay: as above
[4] = test system: HepG2; assay: as above
[5] = test system: Vero E6; assay: as above
[6] = test system: U2OS; assay: cell viability relative to DMSO; higher = less toxic
[7] = test system: Caco-2; assay: as above
[8] = test system: Calu-3; assay: as above
[9] = test system: HepG2; assay: as above
[10] = test system: Vero E6; assay: as above
[11] = test system: U2OS; assay: relative viability EC50 (midpoint between 100% and the lowest measured viability); higher = less toxic
[12] = test system: Caco-2; assay: as above
[13] = test system: Calu-3; assay: as above
[14] = test system: HepG2; assay: as above
[15] = test system: Vero E6; assay: as above

Structure (SMILES) | drug sensitivity score [1] | drug sensitivity score [2] | drug sensitivity score [3] | drug sensitivity score [4] | drug sensitivity score [5] | cell viability ([6]; 1 nM) [%] | cell viability ([6]; 10 nM) [%] | cell viability ([6]; 100 nM) [%] | cell viability ([6]; 1000 nM) [%] | cell viability ([6]; 10000 nM) [%] | cell viability ([7]; 1 nM) [%] | cell viability ([7]; 10 nM) [%] | cell viability ([7]; 100 nM) [%] | cell viability ([7]; 1000 nM) [%] | cell viability ([7]; 10000 nM) [%] | cell viability ([8]; 1 nM) [%] | cell viability ([8]; 10 nM) [%] | cell viability ([8]; 100 nM) [%] | cell viability ([8]; 1000 nM) [%] | cell viability ([8]; 10000 nM) [%] | cell viability ([9]; 1 nM) [%] | cell viability ([9]; 10 nM) [%] | cell viability ([9]; 100 nM) [%] | cell viability ([9]; 1000 nM) [%] | cell viability ([9]; 10000 nM) [%] | cell viability ([10]; 1 nM) [%] | cell viability ([10]; 10 nM) [%] | cell viability ([10]; 100 nM) [%] | cell viability ([10]; 1000 nM) [%] | cell viability ([10]; 10000 nM) [%] | relative viability EC50 [11] [µM] | relative viability EC50 [12] [µM] | relative viability EC50 [13] [µM] | relative viability EC50 [14] [µM] | relative viability EC50 [15] [µM]
C[C@@H]1CN([C@H]2CC[C@](C#N)(c3ccc(F)cc3)CC2)CC[C@]1(C(=O)O)c1ccccc1 [levocabastine] | 0 | 0 | 0 | 0 | 0 | 97.8 | 98 | 104 | 98 | 105 | 103 | 104 | 108 | 99.5 | 99.3 | 94.2 | 99.3 | 109 | 99.4 | 96.2 | 91.5 | 99.6 | 93.6 | 93.7 | 94.2 | 102 | 106 | 100 | 104 | 100 | > 10 | > 10 | > 10 | > 10 | > 10
CCN(CC)C(=O)N[C@H]1C=C2c3cccc4[nH]cc(c34)C[C@H]2N(C)C1 [lisuride] | 0 | 0 | 0 | 0 | 0 | 99.9 | 100 | 100 | 93.4 | 96 | 102 | 81.3 | 101 | 115 | 100 | 96 | 88.6 | 104 | 85 | 105 | 87.7 | 90 | 101 | 97.4 | 96.3 | 97.7 | 106 | 93.5 | 102 | 106 | > 10 | > 10 | > 10 | > 10 | > 10
CCOC(=O)c1c(C)n(C)c2ccc(O)cc12 [mecarbinate] | 0 | 0 | 0 | 0 | 0 | 97.1 | 102 | 94.6 | 100 | 107 | 95.1 | 98.9 | 96 | 103 | 105 | 101 | 101 | 98.6 | 90.6 | 106 | 107 | 104 | 105 | 97.8 | 107 | 99.7 | 98.4 | 100 | 92.9 | 109 | > 10 | > 10 | > 10 | > 10 | > 10
CC(C)C(=O)OC[C@H]1O[C@@H](n2ccc(N)nc2=O)[C@](C)(F)[C@@H]1OC(=O)C(C)C [mericitabine] | 0 | 0 | 0 | 0 | 0 | 97.1 | 94 | 98.6 | 97 | 97.4 | 93.9 | 86.9 | 96.3 | 91.1 | 102 | 110 | 88.1 | 108 | 109 | 106 | 89.3 | 99.3 | 94.1 | 102 | 91.6 | 92.5 | 97.6 | 99.3 | 93.6 | 91.5 | > 10 | > 10 | > 10 | > 10 | > 10
Cn1ccnc1S [methimazole] | 0 | 0 | 0 | 0 | 0 | 98 | 101 | 98.7 | 99.8 | 98.5 | 99.3 | 84.3 | 99.7 | 86.5 | 101 | 93.9 | 97.3 | 100 | 100 | 94.5 | 109 | 95.4 | 109 | 81.7 | 101 | 104 | 99.3 | 102 | 106 | 101 | > 10 | > 10 | > 10 | > 10 | > 10
C[C@H]1C[C@@H]2[C@H]([C@@H](O)C[C@@]3(C)[C@H]2CC[C@]3(O)C(=O)COC(=O)CCC(=O)O)[C@@]2(C)C=CC(=O)C=C12 [methylprednisolone-sodium-succinate] | 0 | 0 | 0 | 0 | 0 | 99.2 | 93.8 | 95 | 92.5 | 93.9 | 104 | 94.6 | 98.3 | 99.6 | 92.5 | 108 | 99 | 88.8 | 91.2 | 122 | 98.2 | 101 | 89.6 | 103 | 91.2 | 100 | 103 | 101 | 96 | 98.2 | > 10 | > 10 | > 10 | > 10 | > 10
C[C@](N)(Cc1ccc(O)cc1)C(=O)O [metirosine] | 0 | 0 | 0 | 0 | 0 | 101 | 96 | 101 | 96 | 99.5 | 97.7 | 96.9 | 93.5 | 88.1 | 94.8 | 112 | 113 | 106 | 97.3 | 99.5 | 86.6 | 97.3 | 96.4 | 97.1 | 91.4 | 95.8 | 94.8 | 95.1 | 95.9 | 96.4 | > 10 | > 10 | > 10 | > 10 | > 10

Source: the supplement of paper PMC13380429
